In ChEMBL document CHEMBL5512616, “pH regulators and their inhibitors in tumor microenvironment” (Eur J Med Chem, 2024) one finds Ki and IC50 data, which are given here for twelve compounds.

Values after ≈ are worked out from the molar mass of the structure shown. Bounds are passed on as bounds.

The target in assay [1] is T1, Carbonic anhydrase 2 (Homo sapiens, UniProt P00918).
Assay [2] addresses T2, Carbonic anhydrase 9 (Homo sapiens, UniProt Q16790).
The target in a further assay is Carbonic anhydrase 1 (Homo sapiens, UniProt P00915).
Assay [3] addresses T3, Monocarboxylate transporter 1 (Homo sapiens, UniProt P53985).
T3 sequence (P53985 whole entry): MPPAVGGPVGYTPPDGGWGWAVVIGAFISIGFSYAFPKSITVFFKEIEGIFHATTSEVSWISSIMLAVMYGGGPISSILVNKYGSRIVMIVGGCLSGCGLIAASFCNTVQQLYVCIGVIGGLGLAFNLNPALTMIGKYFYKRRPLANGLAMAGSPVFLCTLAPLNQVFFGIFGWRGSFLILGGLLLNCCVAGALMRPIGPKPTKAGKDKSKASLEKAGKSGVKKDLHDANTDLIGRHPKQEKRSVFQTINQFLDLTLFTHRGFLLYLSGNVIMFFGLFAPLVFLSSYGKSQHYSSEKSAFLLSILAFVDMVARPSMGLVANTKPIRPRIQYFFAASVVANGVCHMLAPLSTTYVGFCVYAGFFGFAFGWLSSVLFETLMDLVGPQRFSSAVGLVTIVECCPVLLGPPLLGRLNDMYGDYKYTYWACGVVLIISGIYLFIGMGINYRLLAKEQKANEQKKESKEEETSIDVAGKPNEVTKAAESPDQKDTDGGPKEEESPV

A further assay concerns SK-MEL. Nature of the assay: cells. The following applies: Homo sapiens.
A further assay deals with KB. Nature of the assay: cells. The following applies: Homo sapiens.
The subject of a further assay is BT-549. Nature of the assay: cells. As to conditions: Homo sapiens.
The next assay concerns SK-OV-3. The experiment in a line: cells. As to conditions: Homo sapiens.
The target of assay [4] is T3, Monocarboxylate transporter 1. This is another data set of the same source.
In assay [5] the target is T4, Monocarboxylate transporter 4 (Homo sapiens, UniProt O15427).
T4 sequence (O15427 whole entry): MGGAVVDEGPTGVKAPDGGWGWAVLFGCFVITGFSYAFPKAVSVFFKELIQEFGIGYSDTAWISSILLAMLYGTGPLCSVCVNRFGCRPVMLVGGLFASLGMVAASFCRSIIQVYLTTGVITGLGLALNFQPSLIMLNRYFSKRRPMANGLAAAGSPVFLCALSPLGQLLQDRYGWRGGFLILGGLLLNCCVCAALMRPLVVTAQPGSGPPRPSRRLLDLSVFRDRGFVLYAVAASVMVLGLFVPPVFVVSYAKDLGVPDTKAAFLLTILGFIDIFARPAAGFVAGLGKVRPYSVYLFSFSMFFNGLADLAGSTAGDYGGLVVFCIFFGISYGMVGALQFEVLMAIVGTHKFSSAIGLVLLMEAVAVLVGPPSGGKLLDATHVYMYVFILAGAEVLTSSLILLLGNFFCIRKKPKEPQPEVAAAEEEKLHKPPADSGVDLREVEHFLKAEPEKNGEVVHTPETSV

Assay [6] deals with T1, Carbonic anhydrase 2. This is another data set of the same source.
The target of assay [7] is T2, Carbonic anhydrase 9. The source holds these as a separate data set.
Assay [8] addresses T1, Carbonic anhydrase 2. The source holds these as a separate data set.
For assay [9], the target named is T2, Carbonic anhydrase 9. This is another data set of the same source.
In assay [10] the target is T2, Carbonic anhydrase 9. This is another data set of the same source.
The test system of assay [11] is MCF7. Nature of the assay: cells. The following applies: Homo sapiens, MCF7, 96 h.
The test system of assay [12] is MCF7. Nature of the assay: cells. The following applies: Homo sapiens, MCF7, 72 h.
The target of assay [13] is T4, Monocarboxylate transporter 4. This is another data set of the same source.
For assay [14], the target named is T3, Monocarboxylate transporter 1. This is another data set of the same source.
Assay [15] addresses 72 kDa type IV collagenase (Homo sapiens, UniProt P08253). Nature of the assay: Inhibition of MMP2 (unknown origin).
For assay [16], the target named is T2, Carbonic anhydrase 9. The source holds these as a separate data set.
Assay [17] has as its target T1, Carbonic anhydrase 2. The source holds these as a separate data set.
For assay [18], the target named is T2, Carbonic anhydrase 9. The source holds these as a separate data set.
Assay [19] concerns MCF7. Nature of the assay: cells. As to conditions: Homo sapiens, MCF7, 72 h. This is another data set of the same source.
Assay [20] addresses T3, Monocarboxylate transporter 1. This is another data set of the same source.
For assay [21] the target is unchanged. The source holds these as a separate data set.
For assay [22], the target named is T4, Monocarboxylate transporter 4. This is another data set of the same source.

Carbonic anhydrase 1, sequence (P00915 whole entry): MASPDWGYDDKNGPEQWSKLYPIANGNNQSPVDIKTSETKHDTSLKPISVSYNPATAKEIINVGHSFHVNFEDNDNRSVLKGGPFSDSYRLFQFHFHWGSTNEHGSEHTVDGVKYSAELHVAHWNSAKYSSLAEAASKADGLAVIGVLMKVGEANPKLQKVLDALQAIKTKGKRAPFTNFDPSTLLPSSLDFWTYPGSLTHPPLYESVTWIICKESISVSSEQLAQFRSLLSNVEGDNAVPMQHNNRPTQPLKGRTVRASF
72 kDa type IV collagenase, sequence (P08253 whole entry): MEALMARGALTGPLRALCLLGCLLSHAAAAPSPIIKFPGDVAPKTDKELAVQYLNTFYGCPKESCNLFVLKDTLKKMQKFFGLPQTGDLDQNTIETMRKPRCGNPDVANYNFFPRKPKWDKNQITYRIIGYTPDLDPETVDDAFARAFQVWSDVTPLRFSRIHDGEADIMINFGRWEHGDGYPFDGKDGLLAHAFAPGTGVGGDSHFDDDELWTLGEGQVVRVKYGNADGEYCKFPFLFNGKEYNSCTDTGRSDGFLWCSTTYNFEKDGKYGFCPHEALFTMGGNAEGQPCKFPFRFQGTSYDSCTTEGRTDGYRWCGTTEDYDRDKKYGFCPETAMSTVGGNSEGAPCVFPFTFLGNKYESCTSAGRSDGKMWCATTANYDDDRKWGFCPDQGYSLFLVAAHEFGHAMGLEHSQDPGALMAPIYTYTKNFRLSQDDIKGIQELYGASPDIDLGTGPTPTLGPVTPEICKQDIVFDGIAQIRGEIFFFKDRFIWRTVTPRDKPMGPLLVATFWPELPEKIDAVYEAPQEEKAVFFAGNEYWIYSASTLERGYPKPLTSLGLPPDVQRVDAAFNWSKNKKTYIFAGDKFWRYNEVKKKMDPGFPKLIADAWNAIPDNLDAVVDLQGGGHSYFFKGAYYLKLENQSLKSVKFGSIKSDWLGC

What is called Ki is a measure of affinity in units of concentration, obtained from inhibition or displacement. A higher Ki goes with weaker binding. Broadly, the IC50 is the concentration needed to halve the response being measured. In the case of `NS(=O)(=O)c1ccc(N=C2C(=O)Nc3ccccc32)cc1`, the values for the Ki on Carbonic anhydrase 2 [1] and at Carbonic anhydrase 9 [2] were 33 nM and 6.5 nM, respectively. For the same compound, the midpoint of inhibition at Carbonic anhydrase 1, the IC50, lay at 65 nM.

For `CN(Cc1ccccc1)c1ccc2cc(C(=O)O)c(=O)oc2c1`, in [3], inhibition was half-maximal at 59 nM (IC50).

Regarding `COc1cc(/C=C/C(=O)O)ccc1OCc1cn(-c2cccc([N+](=O)[O-])c2)nn1`, the IC50 in the assay on SK-MEL was 9 µg/mL (≈ 22.7 µM); in the assay with KB, 8 µg/mL (≈ 20.2 µM); in the assay with BT-549, 9.4 µg/mL (≈ 23.7 µM); in the assay on SK-OV-3 it was over 10 µg/mL.

As for `O=C(Nc1ccccc1C(=O)O)c1cc(S(=O)(=O)c2ccccc2)ccc1Cl`, the IC50 in assay [4] is 85 nM; in [5], over 50000 nM.

`CC(C)(O)[C@@H](O)COc1c2occc2cc2ccc(=O)oc12`: the Ki is over 10000 nM on Carbonic anhydrase 2 [6], 27.5 nM at Carbonic anhydrase 9 [7], over 10000 nM on Carbonic anhydrase 2 [8] and 27.5 nM on Carbonic anhydrase 9 [9].

`C=C(C)[C@@H]1CC[C@]2(COS(N)(=O)=O)CC[C@]3(C)[C@H](CC[C@@H]4[C@@]5(C)CC[C@H](OC(C)=O)C(C)(C)[C@@H]5CC[C@]43C)[C@@H]12` showed an inhibition constant (Ki) on Carbonic anhydrase 9 [10] of 1.25 nM. Further, the values for the IC50 in the assay with MCF7 [11] and with MCF7 [12] were 7020 nM and 11100 nM, respectively.

Turning to `CC[C@](C)(OCc1cc(-c2cccc(OC3CC3)c2)n(-c2ccccc2N2CCC2)n1)C(=O)O`, the IC50 was 0.36 nM in [13] and 64000 nM in [14].

Regarding `N[C@H](CNC(=O)P(=O)(O)O)CNS(=O)(=O)c1ccc(Oc2ccccc2)cc1`, the results for the IC50 (in [15]; against Carbonic anhydrase 9 [16]) were 15000 nM and 6220 nM, respectively.

In the case of `CC(C)n1nc(C(=O)Nc2ccc3c(c2)C=CS(=O)(=O)O3)c2ccccc21`, the inhibitory constant (Ki) is over 10000 nM at Carbonic anhydrase 2 [17] and 215 nM at Carbonic anhydrase 9 [18].

Regarding `C=C(C)[C@@H]1CC[C@]2(C(=O)O)CC[C@]3(C)[C@H](CC[C@@H]4[C@@]5(C)CC[C@H](O)C(C)(C)[C@@H]5CC[C@]43C)[C@@H]12` [BETULINIC ACID], the IC50 in the assay on MCF7 [11] came out at 14000 nM; in the assay with MCF7 [19], 16400 nM.

Take `CC(C)(OCc1nn(Cc2ccccc2)c2ccccc12)C(=O)O` [BINDARIT]: the Ki in assay [20] was over 500000 nM.

`CCOC(=O)Oc1c(OC)cc(C(=O)O[C@@H]2C[C@@H]3CN4CCc5c([nH]c6cc(OC)ccc56)[C@H]4C[C@@H]3[C@H](C(=O)OC)[C@H]2OC)cc1OC` [SYROSINGOPINE]: the IC50 in assay [21] turned out to be 2500 nM; in [22], 40 nM.
